# Measurements: ChEMBL document CHEMBL1275576, “In vitro activity of tomopenem (CS-023/RO4908463) against anaerobic bacteria” (Antimicrob Agents Chemother, 2009)
# Columns and labels:
# Bacteroides fragilis [1] = test: Antimicrobial activity against carbapenemase-producing Bacteroides fragilis GAI 30079 by agar dilution method in presence of 5% laked sheep blood; assay type: functional
# Phocaeicola vulgatus = test: Antimicrobial activity against Bacteroides vulgatus GAI 0673 by agar dilution method in presence of 5% laked sheep blood; assay type: functional
# [2] = Antimicrobial activity against Parabacteroides distasonis ATCC 8503 by agar dilution method in presence of 5% laked sheep blood; assay type: functional
# Bacteroides ovatus = test: Antimicrobial activity against Bacteroides ovatus ATCC 8483 by agar dilution method in presence of 5% laked sheep blood; assay type: functional
# [3] = system: Bacteroides thetaiotaomicron; test: Antimicrobial activity against Bacteroides thetaiotaomicron ATCC 29741 by agar dilution method in presence of 5% laked sheep blood; assay type: functional
# [4] = system: Bacteroides eggerthii DSM 20697; test: Antimicrobial activity against Bacteroides eggerthii ATCC 27754 by agar dilution method in presence of 5% laked sheep blood; assay type: functional
# Campylobacter gracilis = test: Antimicrobial activity against Campylobacter gracilis JCM 8538 by agar dilution method in presence of 5% laked sheep blood; assay type: functional
# [5] = system: Sutterella wadsworthensis; test: Antimicrobial activity against Sutterella wadsworthensis ATCC 51579 by agar dilution method in presence of 5% laked sheep blood; assay type: functional
# Prevotella bivia = test: Antimicrobial activity against Prevotella bivia ATCC 29303 by agar dilution method in presence of 5% laked sheep blood; assay type: functional; conditions: DSM 20514
# Prevotella buccae = test: Antimicrobial activity against Prevotella buccae ATCC 33574 by agar dilution method in presence of 5% laked sheep blood; assay type: functional; conditions: Segatella buccae
# Prevotella corporis = test: Antimicrobial activity against Prevotella corporis GAI 91000 by agar dilution method in presence of 5% laked sheep blood; assay type: functional
# [6] = system: Bacteroides heparinolyticus; test: Antimicrobial activity against Prevotella heparinolytica ATCC 35895 by agar dilution method in presence of 5% laked sheep blood; assay type: functional
# Prevotella intermedia = test: Antimicrobial activity against Prevotella intermedia ATCC 25611 by agar dilution method in presence of 5% laked sheep blood; assay type: functional
# Prevotella denticola = test: Antimicrobial activity against Prevotella denticola GAI 5490 by agar dilution method in presence of 5% laked sheep blood; assay type: functional
# Prevotella oris = test: Antimicrobial activity against Prevotella oris ATCC 33573 by agar dilution method in presence of 5% laked sheep blood; assay type: functional; conditions: Segatella oris
# [7] = system: Porphyromonas asaccharolytica; test: Antimicrobial activity against Porphyromonas asaccharolyticus ATCC 25260 by agar dilution method in presence of 5% laked sheep blood; assay type: functional; conditions: DSM 20707
# Porphyromonas gingivalis = test: Antimicrobial activity against Porphyromonas gingivalis ATCC 33277 by agar dilution method in presence of 5% laked sheep blood; assay type: functional
# Fusobacterium varium = test: Antimicrobial activity against Fusobacterium varium ATCC 8501 by agar dilution method in presence of 5% laked sheep blood; assay type: functional
# [8] = system: Fusobacterium necrophorum; test: Antimicrobial activity against Fusobacterium necrophorum ATCC 25286 by agar dilution method in presence of 5% laked sheep blood; assay type: functional
# [9] = system: Desulfovibrio desulfuricans; test: Antimicrobial activity against Desulfovibrio desulfuricans ATCC 29577 by agar dilution method in presence of 5% laked sheep blood; assay type: functional
# [10] = Antimicrobial activity against Desulfovibrio piger DSM 749 by agar dilution method in presence of 5% laked sheep blood; assay type: functional, Desulfovibrio piger ATCC 29098
# Capnocytophaga ochracea = test: Antimicrobial activity against Capnocytophaga ochracea GAI 5586 by agar dilution method in presence of 5% laked sheep blood; assay type: functional
# Atopobium parvulum = test: Antimicrobial activity against Atopobium parvulum VPI 0546 by agar dilution method in presence of 5% laked sheep blood; assay type: functional; conditions: Lancefieldella parvula
# [11] = Antimicrobial activity against Finegoldia magna ATCC 29328 by agar dilution method in presence of 5% laked sheep blood; assay type: functional
# Parvimonas micra = test: Antimicrobial activity against Parvimonas micra VPI 5464-1 by agar dilution method in presence of 5% laked sheep blood; assay type: functional
# [12] = system: Peptoniphilus asaccharolyticus; test: Antimicrobial activity against Peptoniphilus asaccharolyticus WAL 3218 by agar dilution method in presence of 5% laked sheep blood; assay type: functional
# Peptoniphilus indolicus = test: Antimicrobial activity against Peptoniphilus indolicus GAI 0915 by agar dilution method in presence of 5% laked sheep blood; assay type: functional
# [13] = system: Peptostreptococcus anaerobius; test: Antimicrobial activity against Peptostreptococcus anaerobius ATCC 27337 by agar dilution method in presence of 5% laked sheep blood; assay type: functional
# Gemella morbillorum = test: Antimicrobial activity against Gemella morbillorum ATCC 27824 by agar dilution method in presence of 5% laked sheep blood; assay type: functional
# [14] = system: Streptococcus constellatus; test: Antimicrobial activity against Streptococcus constellatus ATCC 27923 by agar dilution method in presence of 5% laked sheep blood; assay type: functional
# Clostridioides difficile = test: Antimicrobial activity against Clostridium difficile GAI 10029 by agar dilution method in presence of 5% laked sheep blood; assay type: functional
# [15] = system: Paeniclostridium sordellii; test: Antimicrobial activity against Clostridium sordellii ATCC 9714 by agar dilution method in presence of 5% laked sheep blood; assay type: functional; conditions: Paraclostridium sordellii
# Thomasclavelia ramosa = test: Antimicrobial activity against Clostridium ramosum ATCC 25582 by agar dilution method in presence of 5% laked sheep blood; assay type: functional
# [16] = Antimicrobial activity against Bifidobacterium adolescentis ATCC 15703 by agar dilution method in presence of 5% laked sheep blood; assay type: functional
# Bifidobacterium bifidum = test: Antimicrobial activity against Bifidobacterium bifidum JCM 1255 by agar dilution method in presence of 5% laked sheep blood; assay type: functional
# [17] = Antimicrobial activity against Bifidobacterium longum subsp. longum ATCC 15707 by agar dilution method in presence of 5% laked sheep blood; assay type: functional
# [18] = system: Bifidobacterium pseudolongum; test: Antimicrobial activity against Bifidobacterium pseudolongum ATCC 25526 by agar dilution method in presence of 5% laked sheep blood; assay type: functional
# [19] = system: Propionibacterium granulosum; test: Antimicrobial activity against Propionibacterium granulosum ATCC 25564 by agar dilution method in presence of 5% laked sheep blood; assay type: functional; conditions: Cutibacterium granulosum
# [20] = system: Limosilactobacillus fermentum; test: Antimicrobial activity against Lactobacillus fermentum JCM 1173 by agar dilution method in presence of 5% laked sheep blood; assay type: functional
# [21] = system: Lactiplantibacillus plantarum; test: Antimicrobial activity against Lactobacillus plantarum JCM 1149 by agar dilution method in presence of 5% laked sheep blood; assay type: functional
# [22] = system: Limosilactobacillus reuteri; test: Antimicrobial activity against Lactobacillus reuteri JCM 1112 by agar dilution method in presence of 5% laked sheep blood; assay type: functional
# Lactobacillus salivarius = test: Antimicrobial activity against Lactobacillus salivarius subsp. salivarius JCM 1231 by agar dilution method in presence of 5% laked sheep blood; assay type: functional; conditions: Ligilactobacillus salivarius
# Bacteroides fragilis [23] = test: Antimicrobial activity against Bacteroides fragilis GAI 5562 by agar dilution method in presence of 5% laked sheep blood; assay type: functional
# Bacteroides fragilis [24] = test: Antimicrobial activity against Bacteroides fragilis ATCC 25285 by agar dilution method in presence of 5% laked sheep blood; assay type: functional; conditions: NCTC 9343
# Bacteroides fragilis [25] = test: Antimicrobial activity against Bacteroides fragilis NCTC 10581 by agar dilution method in presence of 5% laked sheep blood; assay type: functional
# Bacteroides fragilis [26] = test: Antimicrobial activity against Bacteroides fragilis GAI 0558 by agar dilution method in presence of 5% laked sheep blood; assay type: functional
compound,measurement,setting,value
C[C@@H](O)[C@H]1C(=O)N2C(C(=O)O)=C(S[C@@H]3CN[C@H](C(=O)N(C)C)C3)[C@H](C)[C@H]12 [MEROPENEM],MIC,Bacteroides fragilis [1],> 128 µg/mL
same,MIC,Phocaeicola vulgatus,0.125 µg/mL
same,MIC,[2],0.125 µg/mL
same,MIC,Bacteroides ovatus,0.25 µg/mL
same,MIC,[3],0.25 µg/mL
same,MIC,[4],0.125 µg/mL
same,MIC,Campylobacter gracilis,0.06 µg/mL
same,MIC,[5],0.06 µg/mL
same,MIC,Prevotella bivia,0.25 µg/mL
same,MIC,Prevotella buccae,0.25 µg/mL
same,MIC,Prevotella corporis,0.03 µg/mL
same,MIC,[6],0.06 µg/mL
same,MIC,Prevotella intermedia,0.06 µg/mL
same,MIC,Prevotella denticola,0.06 µg/mL
same,MIC,Prevotella oris,0.06 µg/mL
same,MIC,[7],≤ 0.015 µg/mL
same,MIC,Porphyromonas gingivalis,≤ 0.015 µg/mL
same,MIC,Fusobacterium varium,0.25 µg/mL
same,MIC,[8],≤ 0.015 µg/mL
same,MIC,[9],0.125 µg/mL
same,MIC,[10],0.03 µg/mL
same,MIC,Capnocytophaga ochracea,0.03 µg/mL
same,MIC,Atopobium parvulum,0.5 µg/mL
same,MIC,[11],0.125 µg/mL
same,MIC,Parvimonas micra,0.125 µg/mL
same,MIC,[12],≤ 0.015 µg/mL
same,MIC,Peptoniphilus indolicus,≤ 0.015 µg/mL
same,MIC,[13],0.5 µg/mL
same,MIC,Gemella morbillorum,≤ 0.015 µg/mL
same,MIC,[14],0.05 µg/mL
same,MIC,Clostridioides difficile,4 µg/mL
same,MIC,[15],0.03 µg/mL
same,MIC,Thomasclavelia ramosa,1 µg/mL
same,MIC,[16],0.125 µg/mL
same,MIC,Bifidobacterium bifidum,0.06 µg/mL
same,MIC,[17],0.5 µg/mL
same,MIC,[18],0.25 µg/mL
same,MIC,[19],1 µg/mL
same,MIC,[20],0.25 µg/mL
same,MIC,[21],0.25 µg/mL
same,MIC,[22],0.5 µg/mL
same,MIC,Lactobacillus salivarius,1 µg/mL
same,MIC,Bacteroides fragilis [23],0.125 µg/mL
same,MIC,Bacteroides fragilis [24],0.25 µg/mL
same,MIC,Bacteroides fragilis [25],0.25 µg/mL
same,MIC,Bacteroides fragilis [26],0.05 µg/mL
C[C@@H](O)[C@H]1C(=O)N2C(C(=O)O)=C(S[C@H]3C[C@@H](C(=O)N4CC[C@H](NC(=O)CNC(=N)N)C4)N(C)C3)[C@H](C)[C@H]12 [TOMOPENEM],MIC,Bacteroides fragilis [1],> 128 µg/mL
same,MIC,Phocaeicola vulgatus,0.25 µg/mL
same,MIC,[2],0.25 µg/mL
same,MIC,Bacteroides ovatus,0.5 µg/mL
same,MIC,[3],0.5 µg/mL
same,MIC,[4],0.125 µg/mL
same,MIC,Campylobacter gracilis,0.06 µg/mL
same,MIC,[5],0.5 µg/mL
same,MIC,Prevotella bivia,0.5 µg/mL
same,MIC,Prevotella buccae,0.25 µg/mL
same,MIC,Prevotella corporis,0.06 µg/mL
same,MIC,[6],0.125 µg/mL
same,MIC,Prevotella intermedia,0.06 µg/mL
same,MIC,Prevotella denticola,0.06 µg/mL
same,MIC,Prevotella oris,0.125 µg/mL
same,MIC,[7],≤ 0.015 µg/mL
same,MIC,Porphyromonas gingivalis,0.03 µg/mL
same,MIC,Fusobacterium varium,0.5 µg/mL
same,MIC,[8],≤ 0.015 µg/mL
same,MIC,[9],0.25 µg/mL
same,MIC,[10],0.03 µg/mL
same,MIC,Capnocytophaga ochracea,0.06 µg/mL
same,MIC,Atopobium parvulum,0.5 µg/mL
same,MIC,[11],0.125 µg/mL
same,MIC,Parvimonas micra,0.125 µg/mL
same,MIC,[12],0.03 µg/mL
same,MIC,Peptoniphilus indolicus,≤ 0.015 µg/mL
same,MIC,[13],0.5 µg/mL
same,MIC,Gemella morbillorum,0.03 µg/mL
same,MIC,[14],0.25 µg/mL
same,MIC,Clostridioides difficile,2 µg/mL
same,MIC,[15],≤ 0.015 µg/mL
same,MIC,Thomasclavelia ramosa,0.5 µg/mL
same,MIC,[16],0.125 µg/mL
same,MIC,Bifidobacterium bifidum,0.06 µg/mL
same,MIC,[17],0.5 µg/mL
same,MIC,[18],0.125 µg/mL
same,MIC,[19],0.5 µg/mL
same,MIC,[20],0.125 µg/mL
same,MIC,[21],0.06 µg/mL
same,MIC,[22],0.125 µg/mL
same,MIC,Lactobacillus salivarius,0.5 µg/mL
same,MIC,Bacteroides fragilis [23],0.25 µg/mL
same,MIC,Bacteroides fragilis [24],0.25 µg/mL
same,MIC,Bacteroides fragilis [25],0.125 µg/mL
same,MIC,Bacteroides fragilis [26],1 µg/mL
CC(=N)N1CC[C@H](SC2=C(C(=O)O)N3C(=O)[C@H]([C@@H](C)O)[C@H]3C2)C1,MIC,Bacteroides fragilis [1],> 128 µg/mL
same,MIC,Phocaeicola vulgatus,0.125 µg/mL
same,MIC,[2],1 µg/mL
same,MIC,Bacteroides ovatus,0.5 µg/mL
same,MIC,[3],0.5 µg/mL
same,MIC,[4],0.25 µg/mL
same,MIC,Campylobacter gracilis,0.25 µg/mL
same,MIC,[5],0.5 µg/mL
same,MIC,Prevotella bivia,0.5 µg/mL
same,MIC,Prevotella buccae,0.25 µg/mL
same,MIC,Prevotella corporis,0.125 µg/mL
same,MIC,[6],0.125 µg/mL
same,MIC,Prevotella intermedia,0.06 µg/mL
same,MIC,Prevotella denticola,0.06 µg/mL
same,MIC,Prevotella oris,0.06 µg/mL
same,MIC,[7],0.03 µg/mL
same,MIC,Porphyromonas gingivalis,0.03 µg/mL
same,MIC,Fusobacterium varium,4 µg/mL
same,MIC,[8],0.125 µg/mL
same,MIC,[9],0.5 µg/mL
same,MIC,[10],0.125 µg/mL
same,MIC,Capnocytophaga ochracea,0.125 µg/mL
same,MIC,Atopobium parvulum,0.25 µg/mL
same,MIC,[11],0.25 µg/mL
same,MIC,Parvimonas micra,0.125 µg/mL
same,MIC,[12],0.25 µg/mL
same,MIC,Peptoniphilus indolicus,0.125 µg/mL
same,MIC,[13],0.125 µg/mL
same,MIC,Gemella morbillorum,≤ 0.015 µg/mL
same,MIC,[14],0.25 µg/mL
same,MIC,Clostridioides difficile,4 µg/mL
same,MIC,[15],0.03 µg/mL
same,MIC,Thomasclavelia ramosa,0.25 µg/mL
same,MIC,[16],0.125 µg/mL
same,MIC,Bifidobacterium bifidum,0.06 µg/mL
same,MIC,[17],1 µg/mL
same,MIC,[18],0.25 µg/mL
same,MIC,[19],0.125 µg/mL
same,MIC,[20],0.03 µg/mL
same,MIC,[21],0.03 µg/mL
same,MIC,[22],0.03 µg/mL
same,MIC,Lactobacillus salivarius,0.25 µg/mL
same,MIC,Bacteroides fragilis [23],0.25 µg/mL
same,MIC,Bacteroides fragilis [24],0.25 µg/mL
same,MIC,Bacteroides fragilis [25],0.25 µg/mL
same,MIC,Bacteroides fragilis [26],0.5 µg/mL
